{
  "source": "patent US20120122830A1",
  "about": "(King Faisal Specialist Hospital & Research Centre, priority 2008, published 2012)",
  "key": {"[1]": {"details": "rats and mice; Akwa et al. 2001; cited from earlier work"}, "B104 cells [2]": {"tested_on": "B104 cells", "experiment": "Necrotic effect of fibrillary form of human Aβ1-42 peptide on B104 cells", "type": "cell-based, Rat", "procedure": "(§1) Rat B104 neuroblastoma is chosen as the cell culture model due to its neuronal phenotype when grown in serum free medium (Schubert et al. Nature 1974; 249: 224-27). B104 cells are routinely grown in flasks of 75 cm^2 with complete culture medium containing Dulbecco's Modified Eagle Medium (DMEM) supplemented with 2 mM L-glutamine, penicillin G (50 U/ml), streptomycin sulfate (50 μg/ml), 10% fetal calf serum, and 5% horse serum. They are sub-cultured every week and the culture medium is changed every three days. Cultures are maintained at 37° C. in a humidified incubator in 90% air and 10% CO2 atmosphere. For the experiments, the cells are plated at the required density, in serum complete medium for 24 H and then the medium is replaced with a serum free one containing or not the desired treatment.\nAβ1-42 is obtained from Bachem and prepared in fibril form known to mediate neurotoxicity (Lorenzo et al. Proc Natl Acad Sci USA 1994; 91:12243-47). Aβ1-42 fibrils are produced by dissolving the peptide in double distilled water (ddH2O) to 10 µg/μl, followed by incubation under agitation (300-400 rpm) for one week at 37° C.\nFlow cytometry is utilized to look for the percentage of apoptosis or necrosis that reflects the neurotoxic effect of Aβ1-42 as well as the neuroprotective effect of neurosteroids by staining cells with annexin V that has affinity to phosphatidyl serine (PS) (Van Genderen et al. 2006). In normal viable cells, PS is located on the cytoplasmic side of the cell membrane. However, in apoptotic cells, PS is translocated from the inner to the outer leaflets of the plasma membrane where annexin V could bind to PS. Moreover, annexin V can pass through the compromised membrane of necrotic cells and bind to PS in the anterior of the cell (Van Genderen et al. Nat Protoc 2006; 1:363-67).\nCells are seeded in 6 well plates at the required density and grown for 24H. They are then treated according to two procedures: either with specific steroids and then Aβ1-42 or with Aβ1-42 followed by steroids. A kinetic study is performed at 6, 12 or 24 H depending on the concentration of the peptide.\nFor flow cytometry analysis, cells are washed with PBS and harvested by trypsinization. After centrifugation and resuspension in annexin binding buffer and incubation for 15 min with 5-25 μl of annexin V conjugate, cells are washed with annexin binding buffer and examined by flow cytometry. Data is examined by using appropriate software, and scattergrams are analyzed."}, "B104 cells [3]": {"tested_on": "B104 cells", "experiment": "Neuroprotection by PREGS against fibrillary human Aβ1-42 peptide toxicity on B104 cells", "type": "cell-based, Rat", "set-up": "protection against Aβ1-42 peptide-induced toxicity: dose or concentration left out as unconfirmed", "procedure": "as §1\nAβ1-42 is obtained from Bachem and prepared in fibril form known to mediate neurotoxicity (Lorenzo et al. Proc Natl Acad Sci USA 1994; 91:12243-47). Aβ1-42 fibrils are produced by dissolving the peptide in double distilled water (ddH2O) to 10 µg/μl, followed by incubation under agitation (300-400 rpm) for one week at 37° C. […]\nFor flow cytometry analysis, cells are washed with PBS and harvested by trypsinization. […] Data is examined by using appropriate software, and scattergrams are analyzed."}, "B104 cells [4]": {"tested_on": "B104 cells", "experiment": "Neurotrophic activity: neuronal outgrowth in B104 cells cultured at low density", "type": "cell-based, Rat", "details": "5 μM PREGS during 7 days, compared to control cells", "procedure": "as §1\nFor this purpose, […] acid (95:5), washed and incubated for 30 min in PBS containing 2% bovine serum albumin (BSA) to block non specific binding. Immunostaining of B104 cells is performed for 2 H at room temperature (RT) with appropriate dilutions of primary antibodies. Then, cells are rinsed and incubated with sheep anti-mouse IgG antibodies (Sigma) in PBS/BSA, for 2 H at RT. After being washed, the immunostained cells are examined under microscope (a Leica or Zeiss Axiovert 135M microequipped with an epifluorescence system or optical microscope Nikon Labophot 2)."}},
  "note": "Read-outs that look alike come from different tables or passages of the source.",
  "data": [
    {"molecule": "CC(=O)[C@@H]1CC[C@@H]2[C@H]3CC=C4C[C@H](OS(=O)(=O)O)CC[C@@]4(C)[C@@H]3CC[C@]21C", "note": "[ent-PREGS]", "values": [
      {"measurement": "potency in stimulating memory relative to natural PREGS", "setting": "[1]", "result": "more potent"}
    ]},
    {"molecule": "Aβ1-42: fibrillary form of human β-amyloid peptide Aβ1-42, obtained from Bachem", "values": [
      {"measurement": "necrosis, dose dependence", "setting": "B104 cells [2]", "result": "significant dose-dependent necrosis"},
      {"measurement": "necrotic effect", "setting": "B104 cells [2]; B104 cells, 10 μM human Aβ1-42 peptide, 6 h, compared to control cells", "result": "considerable necrotic effect"},
      {"measurement": "time after treatment at which necrotic effect was demonstrated", "setting": "B104 cells [2]; B104 cells, fAβ1-42", "result": "≤ 6", "unit": "H"},
      {"measurement": "necrosis, dose dependence", "setting": "B104 cells [2]; B104 cells, increasing from 5 μM to 20 μM of fAβ1-42 peptide", "result": "significant dose-dependent necrosis"}
    ]},
    {"molecule": "pregnenolone sulfate [PREGS]", "values": [
      {"measurement": "protection against fAβ1-42 peptide-induced toxicity", "setting": "B104 cells [3]; PREGS at 20 μM, 20 μM fAβ1-42 peptide, observed at 24H, maintained until 96H", "result": "able to protect"},
      {"measurement": "protection against Aβ1-42 peptide-induced toxicity", "setting": "B104 cells [3]; observed at 24 h, maintained until 96 h", "result": "able to protect"},
      {"measurement": "neuronal cell outgrowth", "setting": "B104 cells [4]", "result": "Striking neuronal cell outgrowth"}
    ]}
  ]
}
